Results: patent publication US6514970B1, “Urotensin-II receptor antagonists” (SmithKline Beecham Corporation, priority 1999, dated 2003)

Columns and labels:
rat-isolated aorta = conditions: cited from earlier work
human and rat GPR-14 = assay: Radioligand binding ([125I] h-U-II, HEK-293 cell membranes); conditions: [125I] h-U-II binding to HEK-293 membranes with cloned GPR-14; species not given
Experimental: HEK-293 cell membranes containing stable cloned human and rat GPR-14 (20 ug/assay) were incubated with 200 pM [125I] h-U-II (200 Ci/mmol^−1 in the presence of increasing concentrations of test compounds in DMSO (0.1 nM to 10 uM), in a final incubation volume of 200 ul (20 mM Tris-HCl, 5 mM MgCl2). Incubation was done for 30 minutes at room temperature followed by filtration GF/B filters with Brandel cell harvester. ^125I labeled U-II binding was quantitated by gamma counting. Nonspecific binding was defined by ^125I U-II binding in the presence of 100 nM of unlabeled human U-II. Analysis of the data was performed by nonlinear least square fitting.

## CC(C)[C@H](NC(=O)[C@@H]1CSSC[C@H](NC(=O)[C@H](CC(=O)O)NC(=O)[C@@H]2CCCN2C(=O)[C@@H](NC(=O)[C@@H](N)CCC(=O)O)[C@@H](C)O)C(=O)N[C@@H](Cc2ccccc2)C(=O)N[C@@H](Cc2c[nH]c3ccccc23)C(=O)N[C@@H](CCCCN)C(=O)N[C@@H](Cc2ccc(O)cc2)C(=O)N1)C(=O)O [Human Urotensin-II]
rat-isolated aorta
  contractile activity: most potent contractile agonist identified to date

## CN(C)CCCOc1ccc(CN2CC[C@H](NC(=O)[C@H](Cc3ccccc3)NC(=O)c3ccc(Br)cc3)C2)cc1 [Example 15]
Human and rat GPR-14
  Ki: 390 nM
